ChEMBL document CHEMBL2380302, “Synthesis of 3-O-propargylated betulinic acid and its 1,2,3-triazoles as potential apoptotic agents” (Eur J Med Chem, 2013)

Columns and labels:
HL-60 [1] = assay: Cytotoxicity against human HL60 cells at 30 uM after 48 hrs by SRB assay; format: functional; conditions: HL-60, 48 h, read-out: GI
PC-3 [2] = assay: Cytotoxicity against human PC3 cells at 10 uM after 48 hrs by SRB assay; format: functional; conditions: PC-3, 48 h, read-out: GI
THP-1 [3] = assay: Cytotoxicity against human THP1 cells after 48 hrs by SRB assay; format: functional, cell-based; conditions: THP-1, 48 h
HCT-15 [4] = assay: Cytotoxicity against human HCT15 cells at 30 uM after 48 hrs by SRB assay; format: functional; conditions: HCT-15, 48 h, read-out: GI
PC-3 [5] = assay: Cytotoxicity against human PC3 cells after 48 hrs by SRB assay; format: functional, cell-based; conditions: PC-3, 48 h
A549 [6] = assay: Cytotoxicity against human A549 cells after 48 hrs by SRB assay; format: functional, cell-based; conditions: A549, 48 h
THP-1 [7] = assay: Cytotoxicity against human THP1 cells at 10 uM after 48 hrs by SRB assay; format: functional; conditions: THP-1, 48 h, read-out: GI
HL-60 [8] = assay: Cytotoxicity against human HL60 cells at 10 uM after 48 hrs by SRB assay; format: functional; conditions: HL-60, 48 h, read-out: GI
THP-1 [9] = assay: Cytotoxicity against human THP1 cells at 30 uM after 48 hrs by SRB assay; format: functional; conditions: THP-1, 48 h, read-out: GI
HCT-15 [10] = assay: Cytotoxicity against human HCT15 cells at 50 uM after 48 hrs by SRB assay; format: functional; conditions: HCT-15, 48 h, read-out: GI
HEp-2 [11] = assay: Cytotoxicity against human Hep2 cells at 50 uM after 48 hrs by SRB assay; format: functional; conditions: HEp-2, 48 h, read-out: GI
MCF7 [12] = assay: Cytotoxicity against human MCF7 cells after 48 hrs by SRB assay; format: functional, cell-based; conditions: MCF7, 48 h
HL-60 [13] = assay: Cytotoxicity against human HL60 cells after 48 hrs by SRB assay; format: functional, cell-based; conditions: HL-60, 48 h
A549 [14] = assay: Cytotoxicity against human A549 cells at 30 uM after 48 hrs by SRB assay; format: functional; conditions: A549, 48 h, read-out: GI
THP-1 [15] = assay: Cytotoxicity against human THP1 cells at 50 uM after 48 hrs by SRB assay; format: functional; conditions: THP-1, 48 h, read-out: GI
MCF7 [16] = assay: Cytotoxicity against human MCF7 cells at 30 uM after 48 hrs by SRB assay; format: functional; conditions: MCF7, 48 h, read-out: GI
HCT-15 [17] = assay: Cytotoxicity against human HCT15 cells after 48 hrs by SRB assay; format: functional, cell-based; conditions: HCT-15, 48 h
PC-3 [18] = assay: Cytotoxicity against human PC3 cells at 30 uM after 48 hrs by SRB assay; format: functional; conditions: PC-3, 48 h, read-out: GI
DU-145 [19] = assay: Cytotoxicity against human DU145 cells at 30 uM after 48 hrs by SRB assay; format: functional; conditions: DU-145, 48 h, read-out: GI
A549 [20] = assay: Cytotoxicity against human A549 cells at 10 uM after 48 hrs by SRB assay; format: functional; conditions: A549, 48 h, read-out: GI
MCF7 [21] = assay: Cytotoxicity against human MCF7 cells at 50 uM after 48 hrs by SRB assay; format: functional; conditions: MCF7, 48 h, read-out: GI
PC-3 [22] = assay: Cytotoxicity against human PC3 cells at 50 uM after 48 hrs by SRB assay; format: functional; conditions: PC-3, 48 h, read-out: GI
HEp-2 [23] = assay: Cytotoxicity against human Hep2 cells after 48 hrs by SRB assay; format: functional, cell-based; conditions: HEp-2, 48 h
DU-145 [24] = assay: Cytotoxicity against human DU145 cells at 50 uM after 48 hrs by SRB assay; format: functional; conditions: DU-145, 48 h, read-out: GI
SF-295 [25] = assay: Cytotoxicity against human SF295 cells at 10 uM after 48 hrs by SRB assay; format: functional; conditions: SF-295, 48 h, read-out: GI
DU-145 [26] = assay: Cytotoxicity against human DU145 cells at 10 uM after 48 hrs by SRB assay; format: functional; conditions: DU-145, 48 h, read-out: GI
MCF7 [27] = assay: Cytotoxicity against human MCF7 cells at 10 uM after 48 hrs by SRB assay; format: functional; conditions: MCF7, 48 h, read-out: GI
SF-295 [28] = assay: Cytotoxicity against human SF295 cells after 48 hrs by SRB assay; format: functional, cell-based; conditions: SF-295, 48 h
HEp-2 [29] = assay: Cytotoxicity against human Hep2 cells at 10 uM after 48 hrs by SRB assay; format: functional; conditions: HEp-2, 48 h, read-out: GI
HCT-15 [30] = assay: Cytotoxicity against human HCT15 cells at 10 uM after 48 hrs by SRB assay; format: functional; conditions: HCT-15, 48 h, read-out: GI
DU-145 [31] = assay: Cytotoxicity against human DU145 cells after 48 hrs by SRB assay; format: functional, cell-based; conditions: DU-145, 48 h
HEp-2 [32] = assay: Cytotoxicity against human Hep2 cells at 30 uM after 48 hrs by SRB assay; format: functional; conditions: HEp-2, 48 h, read-out: GI
A549 [33] = assay: Cytotoxicity against human A549 cells at 50 uM after 48 hrs by SRB assay; format: functional; conditions: A549, 48 h, read-out: GI
SF-295 [34] = assay: Cytotoxicity against human SF295 cells at 50 uM after 48 hrs by SRB assay; format: functional; conditions: SF-295, 48 h, read-out: GI
SF-295 [35] = assay: Cytotoxicity against human SF295 cells at 30 uM after 48 hrs by SRB assay; format: functional; conditions: SF-295, 48 h, read-out: GI
HL-60 [36] = assay: Cytotoxicity against human HL60 cells at 50 uM after 48 hrs by SRB assay; format: functional; conditions: HL-60, 48 h, read-out: GI

| Compound | inhibition of growth at 30 µM (HL-60 [1]) [%] | inhibition of growth at 10 µM (PC-3 [2]) [%] | IC50 (THP-1 [3]) [µM] | inhibition of growth at 30 µM (HCT-15 [4]) [%] | IC50 (PC-3 [5]) [µM] | IC50 (A549 [6]) [µM] | inhibition of growth at 10 µM (THP-1 [7]) [%] | inhibition of growth at 10 µM (HL-60 [8]) [%] | inhibition of growth at 30 µM (THP-1 [9]) [%] | inhibition of growth at 50 µM (HCT-15 [10]) [%] | inhibition of growth at 50 µM (HEp-2 [11]) [%] | IC50 (MCF7 [12]) [µM] | IC50 (HL-60 [13]) [µM] | inhibition of growth at 30 µM (A549 [14]) [%] | inhibition of growth at 50 µM (THP-1 [15]) [%] | inhibition of growth at 30 µM (MCF7 [16]) [%] | IC50 (HCT-15 [17]) [µM] | inhibition of growth at 30 µM (PC-3 [18]) [%] | inhibition of growth at 30 µM (DU-145 [19]) [%] | inhibition of growth at 10 µM (A549 [20]) [%] | also measured |
| --- | --- | --- | --- | --- | --- | --- | --- | --- | --- | --- | --- | --- | --- | --- | --- | --- | --- | --- | --- | --- | --- |
| C=C(C)[C@@H]1CC[C@]2(C(=O)O)CC[C@]3(C)[C@H](CC[C@@H]4[C@@]5(C)CC[C@H](OCc6cn(C7O[C@H](COC(C)=O)[C@@H](OC(C)=O)[C@H](OC(C)=O)[C@H]7OC(C)=O)nn6)C(C)(C)[C@@H]5CC[C@]43C)[C@@H]12 (some centres not stated) | 63 | 8 | 20 | 54 | > 50 | > 50 | 44 | 52 | 58 | 62 | 44 | > 50 | 8 | 20 | 76 | 15 | 27 | 7 | 4 | 5 | inhibition of growth at 50 µM (MCF7 [21]): 32%; inhibition of growth at 50 µM (PC-3 [22]): 11%; IC50 (HEp-2 [23]): > 50 µM; inhibition of growth at 50 µM (DU-145 [24]): 8%; inhibition of growth at 10 µM (SF-295 [25]): 8%; inhibition of growth at 10 µM (DU-145 [26]): 7%; inhibition of growth at 10 µM (MCF7 [27]): 8%; IC50 (SF-295 [28]): > 50 µM; inhibition of growth at 10 µM (HEp-2 [29]): 24%; inhibition of growth at 10 µM (HCT-15 [30]): 39%; IC50 (DU-145 [31]): > 50 µM; inhibition of growth at 30 µM (HEp-2 [32]): 39%; inhibition of growth at 50 µM (A549 [33]): 43%; inhibition of growth at 50 µM (SF-295 [34]): 5%; inhibition of growth at 30 µM (SF-295 [35]): 5%; inhibition of growth at 50 µM (HL-60 [36]): 80% |
| C=C(C)[C@@H]1CC[C@]2(C(=O)O)CC[C@]3(C)[C@H](CC[C@@H]4[C@@]5(C)CC[C@H](OCc6cn(-c7ccc8c(c7)OCO8)nn6)C(C)(C)[C@@H]5CC[C@]43C)[C@@H]12 | 50 | 2 | 34 | 36 | 43 | > 50 | 33 | 41 | 46 | 50 | 67 | 13 | 30 | 40 | 52 | 68 | 50 | 32 | 50 | 22 | inhibition of growth at 50 µM (MCF7 [21]): 82%; inhibition of growth at 50 µM (PC-3 [22]): 61%; IC50 (HEp-2 [23]): 26 µM; inhibition of growth at 50 µM (DU-145 [24]): 91%; inhibition of growth at 10 µM (SF-295 [25]): 36%; inhibition of growth at 10 µM (DU-145 [26]): 10%; inhibition of growth at 10 µM (MCF7 [27]): 47%; IC50 (SF-295 [28]): 18 µM; inhibition of growth at 10 µM (HEp-2 [29]): 9%; inhibition of growth at 10 µM (HCT-15 [30]): 22%; IC50 (DU-145 [31]): 30 µM; inhibition of growth at 30 µM (HEp-2 [32]): 56%; inhibition of growth at 50 µM (A549 [33]): 40%; inhibition of growth at 50 µM (SF-295 [34]): 65%; inhibition of growth at 30 µM (SF-295 [35]): 55%; inhibition of growth at 50 µM (HL-60 [36]): 61% |
